Reference: publication PMC3436903 (Chembiochem : a European journal of chemical biology, 2011)

Test: pH-dependence of keto acid-lactol equilibrium by 1H-NMR in D2O
Format: physicochemical

For Nc1ncnc2c1ncn2[C@@H]1O[C@H](CNS(=O)(=O)NC(=O)CCC(=O)c2ccccc2C(=O)O)[C@@H](O)[C@H]1O [Inhibitor 5], the “pD range of rapid equilibration of keto acid and lactol forms” value (intermediate chemical shifts) was 1.32–4.32 pD, the “pD at which the lactol form is observed” value (ketone α-protons at ≈2.45 ppm) was 0.89 pD and the “pD at which the keto acid form is observed” value (ketone α-protons at ≈3.2 ppm) was no less than 5.70 pD.
